{
  "source": "patent US12496301B2",
  "about": "“Use of androgen receptor degrader for the treatment of spinal and bulbar muscular atrophy” (Arvinas Operations, Inc., priority 2023, dated 2025)",
  "key": {"[1]": {"system": "AR", "assay": "AR degradation in hiPSC myotubes in the presence of dihydrotestosterone (DHT)", "assay_type": "cell-based, human", "excerpt": "FIG. 11 is a representative dose response curve showing mean AR concentration in DMSO treated cells plotted against Compound A concentration in SBMA patient-derived hiPSC lines differentiated into myotubes.\nControl and SBMA hiPSCs were differentiated into myotubes as previously described (Caron, L. et al. 2016, STEM CELLS Transl. Med. 5, 1145-1161) using the skeletal muscle differentiation kit (Amsbio). hiPSCs were dissociated to single cells using Accutase and plated on Geltrex-coated 10 cm culture plates at a density of 200,000 cells per plate with SBMA hiPSCs in skeletal muscle induction media (SKM01, AMSBIO). Media changes were performed every second day until cells were confluent (˜7 days). The resulting myogenic precursor cells were then dissociated to single cells using Accutase and replated on Matrigel-coated 24-well tissue culture plate with 500 μL of cells at 35,000 cells per mL in skeletal myoblast media (SKM02, AMSBIO). Half media changes were performed every second day until myoblasts reached confluence (˜7 days). The media was then switched to myotube medium (SKM03, ASMBIO). Media changes every second day until myotube formation was confirmed by microscopy. […] AR protein was measured by capillary electrophoresis. […]"}, "[2]": {"system": "polyQ-AR", "assay": "Global proteomics in SBMA hiPSC-myotubes: polyQ-AR and specificity", "assay_type": "cell-based, human", "excerpt": "(§1) (FIG. 12A). […] (FIG. 12C)."}, "[3]": {"biological_target": "T1, human AR100Q (Homo sapiens, UniProt P10275, INS80QQQQQQQQQQQQQQQQQQQQQQQQQQQQQQQQQQQQQQQQQQQQQQQQQQQQQQQQQQQQQQQQQQQQQQQQQQQQQ)", "T1 construct": "full-length human AR harboring 100 CAG repeats in exon 1 (hAR100Q); from tissue; host or cells: LABC and quadriceps muscle of transgenic hAR100Q mice (C57BL/6J background, pCAGGS promoter)", "T1 sequence (P10275 with tags, fused parts or gaps with the stated changes)": "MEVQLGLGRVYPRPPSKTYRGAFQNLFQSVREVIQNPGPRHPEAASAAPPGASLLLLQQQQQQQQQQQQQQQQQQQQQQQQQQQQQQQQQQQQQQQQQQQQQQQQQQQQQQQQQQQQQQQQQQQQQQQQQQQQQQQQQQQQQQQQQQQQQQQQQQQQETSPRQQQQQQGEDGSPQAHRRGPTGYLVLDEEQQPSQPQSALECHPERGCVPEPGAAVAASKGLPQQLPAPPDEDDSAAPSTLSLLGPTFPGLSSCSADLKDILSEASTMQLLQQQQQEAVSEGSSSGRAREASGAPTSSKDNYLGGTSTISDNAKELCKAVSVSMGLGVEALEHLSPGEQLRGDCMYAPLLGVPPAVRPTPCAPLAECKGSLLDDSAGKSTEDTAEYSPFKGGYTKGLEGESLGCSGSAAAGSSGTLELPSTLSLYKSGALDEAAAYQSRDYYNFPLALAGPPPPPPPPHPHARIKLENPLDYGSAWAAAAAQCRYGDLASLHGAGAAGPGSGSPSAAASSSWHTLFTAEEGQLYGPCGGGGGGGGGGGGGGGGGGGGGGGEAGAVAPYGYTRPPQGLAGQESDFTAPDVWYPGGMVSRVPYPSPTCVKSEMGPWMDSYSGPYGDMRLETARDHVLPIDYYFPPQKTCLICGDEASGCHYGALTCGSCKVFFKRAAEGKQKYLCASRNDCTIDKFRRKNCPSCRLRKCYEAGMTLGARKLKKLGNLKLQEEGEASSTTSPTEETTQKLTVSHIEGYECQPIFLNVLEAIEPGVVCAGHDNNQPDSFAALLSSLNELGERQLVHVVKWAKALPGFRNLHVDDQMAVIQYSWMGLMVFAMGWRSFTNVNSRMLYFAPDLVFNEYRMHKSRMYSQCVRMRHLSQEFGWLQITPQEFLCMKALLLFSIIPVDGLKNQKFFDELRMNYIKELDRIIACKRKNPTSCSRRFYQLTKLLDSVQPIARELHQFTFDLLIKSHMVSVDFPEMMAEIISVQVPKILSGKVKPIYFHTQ", "assay": "hAR100Q (polyQ-AR) degradation in muscle of hAR100Q mice, capillary immunoassay", "assay_type": "in vivo", "protocol": "(§2) Mouse endogenous AR, human AR100Q, and high molecular weight hAR100Q from hAR100Q mice were quantified by capillary immunoassay. Tissue lysates were prepared as described above using antibodies to AR and resolved by capillary electrophoresis (ProteinSimple). High molecular weight AR was quantified as the area under the curve (AUC) from 300 to 600 kDa.\n(§3) A parallel cohort of hAR100Q mice was maintained in order to evaluate AR degradation at the 11-week timepoint. hAR100Q mice in this tissue cohort were fed chow identical to the mice that underwent muscle strength and endurance tests and were euthanized at 11-weeks of age."}, "[4]": {"system": "human AR100Q", "assay": "hAR100Q (polyQ-AR) degradation in muscle of hAR100Q mice, capillary immunoassay", "assay_type": "in vivo", "protocol": "as §2, §3"}, "[5]": {"assay": "Free fraction in mouse plasma", "assay_type": "in vitro ADME"}, "[6]": {"biological_target": "T2, PDE6D (Homo sapiens, UniProt O43924)", "T2 construct": "endogenous in cells; host or cells: SBMA hiPSC-derived myotubes", "T2 sequence (O43924 whole entry)": "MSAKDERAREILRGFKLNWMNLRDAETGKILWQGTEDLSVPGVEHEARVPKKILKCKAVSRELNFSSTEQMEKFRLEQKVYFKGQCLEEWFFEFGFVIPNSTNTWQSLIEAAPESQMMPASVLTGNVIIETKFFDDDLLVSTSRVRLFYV", "assay": "Global proteomics / Western blot in SBMA hiPSC-myotubes: neosubstrate PDE6D", "assay_type": "cell-based", "conditions": "hiPSC-myotubes, data not shown", "excerpt": "as §1"}},
  "note": "“Also recorded” adds a separate entry of the source. Like-named read-outs stand apart in the source and are kept apart here.",
  "data": [
    {"smiles": "CC(C)N(CC1CCN(c2ncc(C(=O)N[C@H]3C(C)(C)[C@H](Oc4ccc(C#N)c(Cl)c4)C3(C)C)cn2)CC1)[C@H]1C[C@H](Oc2ccc3c(c2)C(=O)N(C2CCC(=O)NC2=O)C3=O)C1", "note": "(some centres unmarked) [Compound A, N-((1r,3r)-3-(3-chloro-4-cyanophenoxy)-2,2,4,4-tetramethylcyclobutyl)-2-(4-((((1r,3r)-3-((2-(2,6-dioxopiperidin-3-yl)-1,3-dioxoisoindolin-5-yl)oxy)cyclobutyl)(isopropyl)amino)methyl)piperidin-1-yl)pyrimidine-5-carboxamide]", "values": [
      {"measurement": "DC50", "setting": "[1]; DHT present at 500 pM, read-out: DC50 in hiPSC myotubes with DHT", "result": 5.9, "unit": "nM"},
      {"measurement": "DC50", "setting": "[1]; without any DHT (0 pM), read-out: DC50 in hiPSC myotubes without DHT", "result": 0.5, "unit": "nM"},
      {"measurement": "polyQ-AR degradation compared to control, global proteomics", "setting": "[2]; 12 nM, SBMA hiPSC-myotubes", "result": "induces degradation of polyQ-AR; also recorded: degrades polyQ-AR"},
      {"measurement": "neosubstrates (off-target substrates) identified", "setting": "[2]; out of ~7,600 proteins detected in myotubes", "result": "single neosubtrate; also recorded: only one neosubstrate"},
      {"measurement": "reduction of high molecular weight (aggregated) hAR100Q in LABC", "setting": "[3]; LABC, 11 weeks of age", "result": "did not induce degradation; also recorded: did not reach significance"},
      {"measurement": "reduction of high molecular weight polyQ-AR (HMW hAR100Q) in quadriceps", "setting": "[3]; quadriceps", "result": "trended towards a reduction"},
      {"measurement": "reduction of monomeric hAR100Q (polyQ-AR) in LABC vs vehicle", "setting": "[4]; LABC, 11 weeks of age, chow approx. 15 mg/kg", "result": 70, "unit": "%"},
      {"measurement": "reduction of polyQ-AR (hAR100Q) in quadriceps", "setting": "[4]; quadriceps", "result": 43, "unit": "%"},
      {"measurement": "AR/polyQ-AR degraded in the quadriceps muscle", "setting": "[4]; quadriceps, AR and polyQ-AR together", "result": "40-60%"},
      {"measurement": "fraction unbound", "setting": "[5]", "result": 0.0044},
      {"measurement": "reduction of PDE6D by Western blot", "setting": "[6]", "result": "~50", "unit": "%"}
    ]}
  ]
}
